US8623377B2, “Joint-homing peptides and uses thereof” (University of Maryland, Baltimore, priority 2011, dated 2014)

Experiments:
[1] = system: HUVECs attachment to vitronectin; assay: Attachment of HUVECs to vitronectin; assay type: cell-based, human; details: peptide 30-800 μg/mL, 1 h on vitronectin-coated wells
Method: HUVECs were first suspended in F-12K medium containing the indicated concentrations of NQR, AK or RGD peptide and then incubated for 1 h in microtiter wells coated with vitronectin. The number of cells that attached to vitronectin was quantified. The results of three independent experiments are shown. *P<0.05, compared with the baseline control.
The attachment of HUVECs to vitrnectin was quantified as described (37, 38). Microtiter wells were coated overnight at 4° C. with 2 μg/mL of vitronectin (BD Biosciences). These wells were then blocked for 1 h at 37° C. with 10 mg/mL of BSA (Sigma-Aldrich). In parallel, HUVECs (1.5×10^5 cells/mL) suspended in F-12K medium containing 10% FBS were incubated for 15 min at 37° C. with different concentrations (30-800 μg/mL) of NQR, ADK, or RGD peptide. Thereafter, this cell suspension 100 μL/well) was added to the vitronectin-coated wells, followed by incubation at 37° C. for 1 h. After washing, the number of attached cells was determined using crystal violet (Fisher Scientific).

ERK1/2 = assay: VEGF-induced signaling in HUVECs, Western blot p-ERK1/2; assay type: cell-based, human; details: peptide 10, 50, 100 μg/mL 1 h, then VEGF 10 ng/mL 20 min
Excerpt: (§1) FIG. 6A: HUVECs were stimulated with VEGF and treated with the indicated concentrations of peptides. Phosphorylated ERK1/2 and Akt, as well as total ERK1/2 and Akt, were detected by Western blot analysis. FIG. 6B: Thereafter, p-ERK1/2 and p-Akt were quantified by densitometry, normalized to total ERK1/2 (left) and Akt (right), respectively, and compared with cells in serum-free medium. The results of a representative experiment from a set of three independent experiments are shown. *P<0.05, compared with the positive control.
(§2) HUVECs were grown in F-12K medium in the presence of endothelial cell growth supplement (ECGS) (BD Biosciences) and 15% FBS. Confluent cells were starved in basal medium (without ECGS and FBS) for 6 h. Then the cells were pretreated for 1 h with different concentrations (10, 50, and 100 μg/mL) of a peptide (NQR, ADK, or RGD) in fresh basal medium, followed by treatment with VEGF (10 ng/mL) for another 20 min. The conditional medium was discarded, and the cells were lysed using a lysis buffer containing protease inhibitors and phosphatase inhibitors. The cell lysate was then centrifuged, and the resulting supernatant was used for analysis of signaling molecules using specific antibodies to human pERK1/2, ERK1/2, pAkt, Akt, and GAPDH (Cell Signaling Technology) by Western blot analysis. The intensity of the bands in the gel was quantified by densitometry. The levels of p-ERK1/2 and p-Akt were normalized to total ERK1/2 and Akt, respectively, and compared with cells in serum-free medium.

[2] = system: adjuvant arthritis in Lewis rats; assay: Antiarthritic activity in the adjuvant arthritis (AA) model, arthritic score; assay type: in vivo, Lewis rat
Method: (§3) FIG. 3A: Group of arthritic Lewis rats (n=4 per group) were injected with a peptide (AD, NQR, or RGD) or PBS i.v. on the days indicated by the arrows either at the onset or just after the onset of arthritis. The its were monitored regularly for the disease severity, presented as “arthritic score”. […] The sections were graded for histopathological features associated with arthritis. B, bone; C, cartilage, JS, joint space; SIC, synovium-infiltrating cells.
(§4) The synthetic peptide corresponding to the selected phage-encoded peptide was diluted in PBS and injected i.v. into Lewis rats beginning either at the onset or just after the onset of arthritis after Mtb injection. The peptide was injected to rats on alternate days at a dose of 1 or 2 mg/kg body weight. A total of three or four injections were given to each rat. Control animals received an equal volume of PBS. All rats were graded regularly for clinical signs of arthritis (36). The hind paws of these rats were harvested and processed for histopathological examination.
AA was induced in Lewis rats by immunizing them with 1 mg/rat of heat-killed M. tuberculosis H37Ra (Mtb; Difco) in 200 μL of mineral oil (Sigma-Aldrich) via s.c. injection at the base of the tail. Beginning on day 7 after immunization, the rats were observed regularly for signs of arthritis in the paws. The severity of arthritis was evaluated based on erythema and swelling as described previously. The highest score for each paw was 4, and the total maximum score for each rat was 16. The course of AA in the Lewis rat involved the following phases: incubation (days 0-8), onset (days 9-11), peak (days 15-18), and recovery (days 21-27).

Akt = assay: VEGF-induced signaling in HUVECs, Western blot p-Akt; assay type: cell-based, human; details: peptide 10, 50, 100 μg/mL 1 h, then VEGF 10 ng/mL 20 min
Excerpt: as §1, §2

HUVECs = assay: Endothelial tube (tubule) formation on Matrigel with VEGF; assay type: cell-based, human; details: VEGF 10 ng/mL, peptide 0-100 μg/mL
Method: FIG. 4A: Draining lymph node leukocytes from arthritic rats were dye-tagged with PKH67 and injected i.v. into arthritic rats. One group of rats was left untreated, and the other groups were treated with ADK or NQR peptide. After 24 hours, the synovium-infiltrating cells (SICs) were harvested from the joints, subjected to cytospin, and analyzed by fluorescence microscopy (left). In parallel, another set of synovium-infiltrating cells were stained with PE-labeled anti-CD3 or anti-CD 11b/c+ antibody and analyzed by flow cytometry (right). FIG. 4B: HUVECs were cultured on Matrigel-coated wells for 24 hours in the presence of VEGF (10 ng/mL) and various concentrations (0-100 μg/mL) of NQR (left), ADK (center), and RGD (right) peptides. The branches of vessel-like tubes were counted. A reprensentative set of results is shown. *P<0.05, compared with the VEGF-alone control.
HUVECs (1×10^4) were cultured in 80 μL/well of growth factor-reduced Matrigel (BD Biosciences) in a 96-well plate in 100 μL/well of F-12K medium (with no supplements). These cells were then treated for 20 h with VEGF (R&D Systems) in the presence or absence of different concentrations of peptides (NQR, ADK, or RGD). Tubule formation was observed under a microscope, quantitated, and photographed.

[3] = system: hind paw joints of arthritic Lewis rats; assay: Histopathological evaluation of hind paw joints of arthritic rats; assay type: in vivo, Lewis rat; details: H&E-stained hind paw sections
Method: as §3, §4
Hind paws of rats were harvested, skinned, and fixed with 10% phosphate buffered formalin (Fisher Scientific) for 3-7 d (1). […] Tissue sections (5 μm) were placed on a glass slide, stained with H&E (Sigma-Aldrich), and assessed for morphological changes and cellular infiltrates.

[4] = system: leukocyte infiltration into the joints of arthritic rats; assay: In vivo migration of PKH67-labeled leukocytes into the joints; set-up: species or system Lewis rat

In the case of “CLDNQRPKC (Synthetic peptide homing to joint in an animal) [NQR peptide, joint-homing phage-derived synthetic peptide]”, the “effect on attachment of HUVECs to vitronectin” value [1] is reported as “Neither peptide had any effect”, the “effect on VEGF-induced pERK” value (ERK1/2) is reported as “induced a decrease in pERK” and the “difference in arthritic score versus PBS/ADK” value ([2]; from day 15 to day 27 (FIG. 3A center)) is reported as “significant”. For the same sequence, the “difference in arthritic score versus PBS” value ([2]; from day 15 to day 27 (FIG. 3A right)) was “significant”, the “suppression of the arthritic process” value ([2]; i.v. injection around the time of onset of arthritis, 1 or 2 mg/kg on alternate days) was “suppressed the arthritic process in a dose-dependent manner” and the down-modulation of arthritis ([2]; injected just after the onset of AA) was “effective in down-modulating arthritis”. The “effect on VEGF-induced pAkt” value (Akt) was “had no effect on pAkt”, the “effect on endothelial cell tube formation” value (HUVECs) was “inhibited tube formation” and the “joint damage (histopathology) versus PBS-treated arthritic rats” value [3] was “much less damage”. The “cell type on which the effect on infiltration was more marked” value ([4]; CD3+ T cells vs CD11b/c+ myeloid cells, flow cytometry) was “more marked on CD3+ T cells than on CD11b/c+ myeloid cells” and the “leukocyte infiltration into the joints” value ([4]; versus nontreated arthritic or ADK-treated arthritic rats, 24 h after cell transfer) was “significantly less leukocyte infiltration”.
